{
  "source": "patent US9889183B2",
  "about": "“PKC activators and anticoagulant in regimen for treating stroke” (BLANCHETTE ROCKEFELLER NEUROSCIENCES INSTITUTE, priority 2010, dated 2018)",
  "key": {"[1]": {"test_system": "TACE in primary neurons", "assay": "TACE assay, rat primary neurons", "type": "cell-based", "settings": "FIG. 13b and 13c", "protocol": "FIGS. 13a, 13b and 13c show effects of (FIG. 13a) bryostatin, BR-101 (DCP-LA) and BR-111 (DHA-CP6) on TACE activity in N2a neuroblastoma cells transfected with human APPSwe/PS1D; (FIG. 13b) various concentrations of bryostatin on TACE activity in rat cortical primary neurons; and (FIG. 13c) BR-111 (DHA-CP6) on TACE activity in rat cortical primary neurons.\nTACE Assay. TACE was measured by incubating 5 μl cell homogenate, 3 μl buffer (50 mM Tris-HCl 7.4 plus 25 mM NaCl plus 4% glycerol), and 1 μl of 100 μM TACE substrate (Aβz-[…]-DPa) (Calbiochem) for 20 min at 37° C. 1.5-ml polypropylene centrifuge tubes. Jin et al., Anal. Biochem. (2002), vol. 302, pp. 269-275. The reaction was stopped by cooling to 4° C. The samples were diluted to 1 ml and the fluorescence was rapidly measured (ex=320 nm, em=420 nm) in a Spex Fluorolog 2 spectrofluorometer.\nBuxbaum et al., J Biol. Chem. (1998), vol. 273, pp. 27765-27767; Etcheberrigaray et al., Proc. Natl. Acad. Sci. USA (2006), vol. 103, pp. 8215-8220. However, many of these earlier studies were carried out in fibroblasts and other non-neuronal cell types, which appear to respond differently to PKC activators than neurons."}, "[2]": {"molecular_target": "T1, PKCε (Homo sapiens, UniProt Q02156)", "T1 construct": "purchased Calbiochem", "T1 sequence (Q02156 1-737)": "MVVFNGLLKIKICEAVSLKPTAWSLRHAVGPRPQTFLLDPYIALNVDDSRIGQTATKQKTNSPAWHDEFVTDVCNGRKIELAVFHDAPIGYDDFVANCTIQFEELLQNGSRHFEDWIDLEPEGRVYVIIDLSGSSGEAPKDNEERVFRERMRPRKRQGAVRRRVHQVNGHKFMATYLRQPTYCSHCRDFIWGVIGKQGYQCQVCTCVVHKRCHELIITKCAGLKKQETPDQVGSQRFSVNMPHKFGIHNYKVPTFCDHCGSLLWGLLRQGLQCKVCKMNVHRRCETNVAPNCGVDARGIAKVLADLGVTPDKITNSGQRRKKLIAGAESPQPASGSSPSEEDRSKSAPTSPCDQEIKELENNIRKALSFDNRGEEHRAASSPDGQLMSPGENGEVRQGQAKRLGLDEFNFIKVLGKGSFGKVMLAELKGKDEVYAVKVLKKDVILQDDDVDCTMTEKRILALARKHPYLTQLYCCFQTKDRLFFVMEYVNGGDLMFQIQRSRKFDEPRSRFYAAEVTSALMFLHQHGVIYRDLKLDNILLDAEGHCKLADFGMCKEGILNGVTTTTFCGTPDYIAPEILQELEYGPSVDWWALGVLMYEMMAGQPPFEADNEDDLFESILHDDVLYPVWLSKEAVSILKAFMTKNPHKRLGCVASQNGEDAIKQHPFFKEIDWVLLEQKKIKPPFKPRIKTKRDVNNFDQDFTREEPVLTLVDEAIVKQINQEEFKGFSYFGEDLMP", "assay": "PKC assay with purified PKCε", "type": "biochemical", "protocol": "PKC assay. Recombinant PKC (1 ng of PKCα or PKCε isoform) was mixed with BR-101 (DCP-LA) in the presence of 10 micromolar histones, 5 mM CaCl2, 1.2 μg/μl phosphatidyl-L-serine, 0.18 μg/μl 1,2-dioctanoyl-sn-glycerol (DAG), 10 mM MgCl2, 20 mM HEPES (pH 7.4), 0.8 mM EDTA, 4 mM EGTA, 4% glycerol, 8 μg/ml aprotinin, 8 μg/ml leupeptin, and 2 mM benzamidine. 0.5 micro Ci[^γ32P]ATP was added. The incubation mixture was incubated for 15 min at 37 degrees in a total volume of 10 microliters. The reaction was stopped by spotting the reaction mixtures on 1×2 cm strips of cellulose phosphate paper (Whatman P81) and immediately washing twice for 1 hr in 0.5% H3PO4. The cellulose phosphate strips were counted in a scintillation counter. In some experiments, phosphatidylserine, diacylglycerol, and/or calcium were removed.\nDHA methyl ester was purchased from Cayman Chemical (Ann Arbor, Me.). PKC isozymes were from Calbiochem (San Diego, Calif.). Purified PKCε was purchased from Calbiochem.\n(§1) Protein kinase C assay. Rat hippocampal cells were cultured and scraped in 0.2 ml homogenization buffer (20 mM Tris-HCl, pH 7.4, 50 mM NaF, 1 μg/ml leupeptin, and 0.1 mM PMSF) and homogenized by sonication a Marsonix microprobe sonicator (5 sec, 10 W). To measure PKC, 10 μl of cell homogenate or purified PKC isozyme (purchased from Calbiochem) was incubated for 15 min at 37° C. in the presence of 10 μM histones, 4.89 mM CaCl2, 1.2 μg/μl phosphatidyl-L-serine, 0.18 μg/μl 1,2-dioctanoyl-sn-glycerol, 10 mM MgCl2, 20 mM HEPES (pH 7.4), 0.8 mM EDTA, 4 mM EGTA, 4% glycerol, 8 μg/ml aprotinin, 8 μg/ml leupeptin, and 2 mM benzamidine. […][^γ32P]ATP was added and ^32P-phosphoprotein formation was measured by adsorption onto phosphocellulose as described previously. Nelson and Alkon, J. Neurochemistry (1995), vol. 65, pp. 2350-2357. For measurements of activation by BR-101 (DCP-LA) and similar compounds. PKC activity was measured in the absence of diacylglycerol and phosphatidylserine and PKC δ, ε, η, and μ were measured in the absence of added EGTA and CaCl2, as described by Kanno et al. (J. Lipid Res. 2006, vol. 47, pp. 1146-1150). Low concentrations of Ca^2+ are used because high Ca^2+ interacts with the PKC phosphatidylserine binding site and prevents activation. For measurements of bryostatin activation, 1,2-diacylglycerol was omitted unless otherwise stated.\n(§2) To determine their PKC isozyme specificity, fatty acid derivatives were preincubated with purified PKC for five minutes and the PKC activity was measured radiometrically."}, "[3]": {"test_system": "other PKC isoforms", "assay": "PKC isozyme specificity, other PKC isoforms", "type": "biochemical", "settings": "data not shown", "protocol": "as §1, with “Low concentrations of Ca^2+ are used because high Ca^2+ interacts with the PKC phosphatidylserine binding site and prevents activation. For measurements of bryostatin activation, 1,2-diacylglycerol was omitted unless otherwise stated.” left out\nas §2"}},
  "data": [
    {"smiles": "CCC1CC1CC1CC1CC1CC1CC1CC1CC1CC1CC1CC1CCC(=O)OC", "note": "(stereo not drawn) [BR-111, methyl-3-(2-((2-((2-((2-((2-((2-ethylcyclopropyl)methyl)cyclopropyl)methyl)cyclopropyl)methyl)-cyclopropyl)methyl)cyclopropyl)methyl)cyclopropyl)propanoate]", "values": [
      {"measurement": "TACE activity", "setting": "[1]", "result": "small increases"},
      {"measurement": "concentration needed to activate PKC relative to BR-101 (DCP-LA)", "setting": "[2]", "result": "approximately 100 times lower"},
      {"measurement": "activation of purified PKCε (in words)", "setting": "[2]; FIG. 7, methyl esters", "result": "activated purified PKCε to a similar extent"}
    ]},
    {"smiles": "CCC/C=C/C=C/C(=O)O[C@H]1/C(=C/C(=O)OC)C[C@H]2C[C@H]([C@@H](C)O)OC(=O)C[C@H](O)C[C@@H]3C[C@H](OC(C)=O)C(C)(C)[C@](O)(C[C@@H]4C/C(=C/C(=O)OC)C[C@H](/C=C/C(C)(C)[C@]1(O)O2)O4)O3", "note": "[Bryostatin-1, bryostatin-1]", "values": [
      {"measurement": "TACE activity", "setting": "[1]", "result": "small increases"}
    ]},
    {"smiles": "CCCCCC1CC1CC1CC1CCCCCCCC(=O)O", "note": "(stereo not drawn) [BR-101, 2-[(2-pentylcyclopropyl)methyl]cyclopropaneoctanoic acid]", "values": [
      {"measurement": "activation of PKCε (in words)", "setting": "[2]; at 10 μM", "result": "effective activator"},
      {"measurement": "effects on the other PKC isoforms", "setting": "[3]", "result": "relatively small effects"}
    ]}
  ]
}
